Counter-ions that a name gives are not always drawn.
Molecular target: T1, BK2 receptor sites in guinea pig ileum (Cavia porcellus, UniProt O70526)
T1 construct: The tissue is cut into small pieces and homogenized in 20 volumes of homogenization buffer; from tissue; host or cells: guinea pig distal ileum, membrane homogenate (Hartley strain, male, adult; animals from Charles River)
T1 sequence (O70526 1-372): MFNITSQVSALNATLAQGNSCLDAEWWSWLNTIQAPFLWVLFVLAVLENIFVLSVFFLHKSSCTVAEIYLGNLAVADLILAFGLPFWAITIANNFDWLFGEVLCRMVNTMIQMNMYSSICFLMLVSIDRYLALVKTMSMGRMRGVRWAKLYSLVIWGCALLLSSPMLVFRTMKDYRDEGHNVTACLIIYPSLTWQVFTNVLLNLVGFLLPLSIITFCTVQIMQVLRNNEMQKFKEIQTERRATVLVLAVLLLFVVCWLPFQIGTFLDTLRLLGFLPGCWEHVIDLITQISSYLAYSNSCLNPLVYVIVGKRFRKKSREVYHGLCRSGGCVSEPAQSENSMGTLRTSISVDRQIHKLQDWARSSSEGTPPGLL
Assay: Bradykinin Receptor Binding Assay (competition with 3H-bradykinin for BK2 receptor sites in guinea pig ileum)
Conditions: 80 pM 3H-BK, guinea pig ileum homogenate, 90 min, 25° C., pH 6.8; read-out: Bradykinin Binding in G.P. ileum, IC50
Method: 1. Bradykinin Receptor Binding Assay
The following procedure is used to identify compounds which compete specifically with triturated bradykinin (^3 H-BK) for BK2 receptor sites in guinea pig ileum.
The distal portion of adult, male guinea pig (Hartley strain, 350-500 g, Charles River) ileum is removed and placed in ice cold homogenization buffer [[…] N-tris (hydroxymethyl)methyl-2-aminoethane sulfonic acid (TES), 1 mM 1, 10-phenanthroline, adjusted to pH 6.8 with ammonium hydroxide].
The contents of the ileal lumen are rinsed out with cold homogenization buffer. The tissue is cut into small pieces and homogenized in 20 volumes of homogenization buffer 3 times of 10 seconds duration using a Brinkman Polytron homogenizer equipped with a PTA 10 TS generator at setting 5.
The homogenate is fillered through a surgical gauze sponge and centrifuged at 50,000 × g for 20 minutes at 4° C. The supernatant fluid is discarded and the homogenization and centrifugation procedures are repeated. After discarding the supernatant fluid, the final pellet is resuspended in 40 volumes of assay buffer (25 mM TES, pH 6.8, 1 mM 1,10-phenanthroline, 1 mM dithiothreitol, 2 μM captopril, 140 μg/ml bacitracin and 0.1% bovine serum albumin (BSA)). The homogenate is filtered once more through a surgical gauze sponge and kept on ice until used. The assay is performed using only polypropylene pipet tips and polypropylene test tubes. Each tube receives 100 μl of 800 pM ^3 H-BK, 100 μl of the test compound solution […] or vehicle (assay buffer), and 100 μl of 25 mg/ml tissue homogenate in a total volume of 1 ml. The final concentration of 3H-BK is 80 pM. The final tissue concentration is 2.5 mg/ml. Compounds are screened at 100 μM. Compounds which are not soluble in water are first solubilized in DMSO and then diluted 1:100 in the assay buffer. Addition of 100 μl of this sample to the assay will yield a final DMSO concentration of 0.1% which has been shown not to affect the binding assay. Nonspecific binding is determined in the presence of 1 μM unlabeled bradykinin. All determinmions are made in triplicate. Three 100 μl aliquots of the 800 pM 3H-BK working solution are added directly to scintillation vials to determine the total added radioactivity.
The tubes are incubated for 90 minutes at 25° C. while being gently agitated on an orbital shaker. Bound ligand is separated from free ligand, using Whatman GF/B glass fiber filters (pretreated with 0.1% aqueous polyethyleneimine made neutral with HCl). A Brandel receptor binding harvester is used. Assay tubes and glass fiber filters are rinsed three times with 3 ml of cold physiological saline.
The filter discs are transferred to 20 ml scintillation vials. Ten ml of aqueous sample LSC cocktail (Aquassure, New England Nuclear) is added to each vial. After capping, the vials are agitated for 5 minutes on an orbital shaker. The samples are counted for ten minutes in a refrigerated liquid scintillation counter to obtain the following values: Bt (total binding), Bns (non-specific binding) and Bx (total binding in the presence of the test compound). From these values, control specific binding (C=Bt -Bns), specific binding in the presence of the test compound (D=Bx -Bns), percent of control (D/C ×100) and percent inhibition (1-D/C)×100 are calculated.
If 50% inhibition is obtained at the screening concentration, the compound is considered active and a dilution series (typically 1:3 serial dilutions of the test compound) is tested in the binding assay. After calculation of the percent of control of each dilution, the values are analyzed and the IC50 with its 95% confidence limits is determined.

In order of falling IC50:
1. CCN(CCN(C)C)C(=O)c1cnc2c(OC)cccc2c1Nc1ccc(C(=O)NC2CCN(Cc3ccccc3)CC2)cc1 [Ex. 5, N-[2-(Dimethylamino)ethyl]-N-ethyl-8-methoxy-4-[[4-[[[1-(phenylmethyl)-4-piperidinyl]amino]carbonyl]phenyl]amino]-3-quinolinecarboxamide]  2.9 µM
2. CCCCN1CCC(NC(=O)c2ccc(Nc3c(C(=O)NC4CCN(Cc5ccccc5)CC4)cnc4c(OC)cccc34)cc2)CC1 [Ex. 13, 4-[[4-[[(1-Butyl-4-piperidinyl)amino]carbonyl]phenyl]amino]-8-methoxy-N-[1-(phenylmethyl)-4-piperidinyl]-3-quinoinecarboxamide]  2.9 µM
3. COc1cccc2c(Nc3ccc(C(=O)NC4CCN(Cc5ccccc5)CC4)cc3)c(C(=O)NCCN(C)C)cnc12 [Ex. 4, N-[2-(Dimethylamino)ethyl]-8-methoxy-4-[[4-[[[1-(phenylmethyl) -4-piperidinyl]amino]carbonyl]phenyl]amino]-3-quinolinecarboxamide trifluoroacetate (1:4)]  2.7 µM
4. CCN(CC)C(=O)CCCCCN1CCC(NC(=O)c2cnc3c(OC)cccc3c2Nc2ccc(C(=O)NC3CCN(Cc4ccccc4)CC3)cc2)CC1 [Ex. 9, N-[1-[6-(Diethylamino)-6-oxohexyl]-4-piperidinyl]-8-methoxy-4-[[4-[[[1-(phenylmethyl)-4-piperidinyl]amino]carbonyl]-phenyl]amino]-3-quinolinecarboxamide]  2.6 µM
5. CCN(CC)C(=O)c1cccc(CN2CCC(NC(=O)c3cnc4c(OC)cccc4c3Nc3ccc(C(=O)NC4CCN(Cc5ccccc5)CC4)cc3)CC2)c1 [Ex. 11]  1.6 µM
6. CCN(CC)C(=O)CCCCCN1CCC(N(Cc2ccc(Nc3c(C(=O)NC4CCN(Cc5ccccc5)CC4)cnc4c(OC)cccc34)cc2)C(=O)CCC2CCCC2)CC1 [Ex. 6]  1.44 µM
7. COc1cccc2c(Nc3ccc(C(=O)NC4CCN(Cc5ccccc5)CC4)cc3)c(C(=O)N(C)C3CCN(C)CC3)cnc12 [Ex. 14]  1.4 µM
8. CCCCN1CCC(NC(=O)c2cnc3c(OC)cccc3c2Nc2ccc(C(=O)NC3CCN(Cc4ccccc4)CC3)cc2)CC1 [Ex. 8, N-(1-Butyl-4-piperidinyl)-8-methoxy-4-[[4-[[[1-(phenylmethyl) -4-piperidinyl]amino]carbonyl]phenyl]amino]-3-quinolinecarboxamide]  1.2 µM
9. COc1cccc2c(Nc3ccc(C(=O)NC4CCN(Cc5ccccc5)CC4)cc3)c(C(=O)NC3CCN(CCc4ccccc4)CC3)cnc12 [Ex. 12, N-[1-(2-Phenylethyl)-4-piperidinyl]-8-methoxy-4-[[4-[[[1-(phenylmethyl)-4piperidinyl]amino]carbonyl]phenyl]amino]-3-quinolinecarboxamide]  0.67 µM
10. COc1cccc2c(Nc3ccc(C(=O)NC4CCN(Cc5ccccc5)CC4)cc3)c(C(=O)NC3CCN(Cc4ccc(C(C)(C)C)cc4)CC3)cnc12 [Ex. 1, N-[1-[4-(1,1-Dimethylethyl)phenyl]methyl-4-piperidinyl]-8-methoxy-4-[[4-[[[1-(phenylmethyl) -4-piperidinyl]amino]carbonyl]phenyl]amino]-3-quinolinecarboxamide]  0.43 µM
11. O=C(NC1CCN(Cc2ccccc2)CC1)c1ccc(Nc2c(C(=O)NC3CCN(Cc4ccccc4)CC3)cnc3cc(Cl)ccc23)cc1 [Ex. 17, 7-Chloro-N-[1-(phenylmethyl)-4-piperidinyl]-4-[[4-[[[1-(phenylmethyl)-4-piperidinyl]amino]carbonyl]phenyl]amino]-3-quinolinecarboxamide]  0.43 µM
12. COc1cccc2c(Nc3ccc(C(=O)NC4CCN(Cc5ccccc5)CC4)cc3)c(C(=O)NC3CCN(Cc4cccc(C(F)(F)F)c4)CC3)cnc12 [Ex. 16]  0.25 µM
13. COc1cccc(CN2CCC(NC(=O)c3cnc4c(OC)cccc4c3Nc3ccc(C(=O)NC4CCN(Cc5ccccc5)CC4)cc3)CC2)c1 [Ex. 15, N-[1-[(3-Methoxyphenyl)methyl]-4-piperidinyl]-8-methoxy-4-[[4-[[[1-(phenylmethyl)-4-piperidinyl]amino]carbonyl]phenyl]amino]-3-quinoline-carboxamide]  0.22 µM
14. COc1cccc2c(Nc3ccc(C(=O)NC4CCN(Cc5ccccc5)CC4)cc3)c(C(=O)NC3CCN(Cc4ccccc4)CC3)cnc12 [Ex. 3]  0.093 µM
15. COc1cccc2c(Nc3ccc(C(=O)NC4CCN(Cc5ccccc5)CC4)cc3)c(C(=O)NC3CCN(Cc4cccc(Cl)c4)CC3)cnc12 [Ex. 2]  0.079 µM

Same assay, conditions: at 10 μM; 80 pM 3H-BK, guinea pig ileum homogenate; read-out: Bradykinin Binding in G.P. ileum, % inhibition at 10 μM

In order of falling inhibition at 10 µM:
1. CCCCN1CCC(NCc2ccc(Nc3c(C(=O)NC4CCN(Cc5ccccc5)CC4)cnc4c(OC)cccc34)cc2)CC1 [Ex. 7, 4-[[4-[[(1-Butyl-4-piperidinyl)amino]methyl]phenyl]amino]-8-methoxy-N-[1-(phenyimethyl)-4-piperidinyl]-3-qinolinecarboxamide]  50.5%
2. CCCCN1CCC(N(Cc2ccc(Nc3c(C(=O)NC4CCN(Cc5ccccc5)CC4)cnc4c(OC)cccc34)cc2)C(=O)CCC)CC1 [Ex. 10]  42.8%

Tested on: bradykinin-induced writhing in mice
Assay: Bradykinin-induced Writhing in Mice
Format: in vivo, mice (male CD-1)
Conditions: 30 mg/kg i.p., mice
Method: 2. Bradykinin-induced Writhing in Mice
Male CD-1 Charles River mice (14-19g), fasted overnight but having free access to water, in groups of 10 (control and treated) are given an intraperitoneal (j.p.) injection of 1 mg/kg of prostaglandin PGE2 in phosphate buffered saline (10 μl/g) and after 20 minutes each mouse receives an i.p. injection of bradykinin (0.5 mg/kg in saline). The treatment group of mice receive a test compound either orally 1 hour prior to administration of bradykinin or i.p. 2 minutes prior to administration of bradykinin. Test compounds are given in saline if soluble or as a suspension in 0.5% Tween 80. The percent inhibition of writhing obtained is calculated as follows: [formula] where C is the mean number of writhes in the control group and D is the mean number of writhes in the drag group. If 30% inhibition or higher is observed with the screening dose, the test compound is considered active. Several logarithmically spaced doses will be tested and the ED50 determined by regression methods with inverse prediction.

In order of rising “Bradykinin-induced writhing, % inhibition at 30 mg/kg i.p.” value:
1. COc1cccc2c(Nc3ccc(C(=O)NC4CCN(Cc5ccccc5)CC4)cc3)c(C(=O)NC3CCN(Cc4ccccc4)CC3)cnc12 [Ex. 3]  20%
2. CCCCN1CCC(NC(=O)c2cnc3c(OC)cccc3c2Nc2ccc(C(=O)NC3CCN(Cc4ccccc4)CC3)cc2)CC1 [Ex. 8, N-(1-Butyl-4-piperidinyl)-8-methoxy-4-[[4-[[[1-(phenylmethyl) -4-piperidinyl]amino]carbonyl]phenyl]amino]-3-quinolinecarboxamide]  32%
3. CCN(CC)C(=O)CCCCCN1CCC(NC(=O)c2cnc3c(OC)cccc3c2Nc2ccc(C(=O)NC3CCN(Cc4ccccc4)CC3)cc2)CC1 [Ex. 9, N-[1-[6-(Diethylamino)-6-oxohexyl]-4-piperidinyl]-8-methoxy-4-[[4-[[[1-(phenylmethyl)-4-piperidinyl]amino]carbonyl]-phenyl]amino]-3-quinolinecarboxamide]  46%

Same assay, conditions: 100 mg/kg p.o., mice

For `CC(C(=O)O)c1cccc(C(=O)c2ccccc2)c1` (stereo not drawn) [Ketoprofen], the “Bradykinin-induced writhing, % inhibition” value was 52%.

Same assay, conditions: 200 mg/kg p.o., mice

With `CC(C)Cc1ccc(C(C)C(=O)O)cc1` (stereo not drawn) [Ibuprofen] the “Bradykinin-induced writhing, % inhibition” value was 43%.

Same assay, conditions: 300 mg/kg p.o., mice

In the case of `CC(=O)Nc1ccc(O)cc1` [Acetaminophen], the “Bradykinin-induced writhing, % inhibition” value is reported as 20%.

Same assay, conditions: Mus musculus, po, read-out: Bradykinin-induced writhing, ED50

With `CN1CC[C@]23c4c5ccc(O)c4O[C@H]2[C@@H](O)C=C[C@H]3[C@H]1C5` [Morphine] the ED50 was 4.5 mg/kg.
